The test system of this assay is P388 leukemia ip, CD2F1 mice, survival T/C. As to the kind of experiment: NCI In Vivo Anticancer Drug Screen. Data for tumor model P388 Leukemia (intraperitoneal) in CD2F1 (CDF1) mice. The conditions noted are these: endpoint: median survival time, higher = longer survival. The protocol:
The antitumor activity of compounds was measured in mice bearing transplantable tumors. Survival or tumor size were measured and the results are expressed as the measurement made in the treated group (T) divided by the measurement made in the vehicle treated control group (C). The tumor model used in this assay is P388 Leukemia (intraperitoneal) in CD2F1 (CDF1) mice

Setting [1] is: dose: 60.0 mg/kg/injection, schedule: Q01DX005 (ip), vehicle: saline with Tween-80.
[2] abbreviates: dose: 120.0 mg/kg/injection, schedule: Q01DX005 (ip), vehicle: saline with Tween-80.
Setting [3] is: dose: 240.0 mg/kg/injection, schedule: Q01DX005 (ip), vehicle: saline with Tween-80.
The mark [4] stands for this setting: dose: 50.0 mg/kg/injection, schedule: Q01DX005 (ip), vehicle: saline with Tween-80.
Where [5] appears, read: dose: 100.0 mg/kg/injection, schedule: Q01DX005 (ip), vehicle: saline with Tween-80.
[6] abbreviates: dose: 200.0 mg/kg/injection, schedule: Q01DX005 (ip), vehicle: saline with Tween-80.

SMILES strings stand for the structures. Where “and” joins values, the source holds several entries; their conditions need not be identical. Equal values may be shown once. Inconclusive results and toxic doses are left out.

The values below come from PubChem BioAssay AID330 (DTP/NCI, 2004).

Turning to `Cc1nccn1Cc1ccc(Cl)cc1Cl`, the T/C runs as follows: under setting [1], 95 % of control; under setting [2], 95 % of control.
Consider `COc1ccc2c(O)c3[n+](cc2c1OC)CCc1cc2c(cc1-3)OCO2`, for which the T/C is 99 % of control under setting [1], 104 % of control under setting [2] and 101 % of control under setting [3].
`CCCCCCCCCCCCCCCC[N+](C)(C)CC[S+](C)C`: the T/C runs as follows: (dose: 12.5 mg/kg/injection, schedule: Q01DX009 (ip), vehicle: water) 96 % of control; (dose: 25.0 mg/kg/injection, schedule: Q01DX009 (ip), vehicle: water) 99 % of control; (dose: 50.0 mg/kg/injection, schedule: Q01DX009 (ip), vehicle: water) 100 % of control.
Take `c1ccc(C(SN=C2CCCCC2)(c2ccccc2)c2ccccc2)cc1`: the T/C reads like this: under setting [4], 100 % of control; under setting [5], 91 % of control; under setting [6], 90 % of control.
As for `O=C(c1ccc(Cl)cc1)C(O)NC(=S)c1ccc(Cl)cc1` (stereo not drawn), the T/C runs as follows: (dose: 50.0 mg/kg/injection, schedule: Q01DX009 (ip), vehicle: saline with Tween-80) 96 % of control; (dose: 100.0 mg/kg/injection, schedule: Q01DX009 (ip), vehicle: saline with Tween-80) 111 % of control; (dose: 200.0 mg/kg/injection, schedule: Q01DX009 (ip), vehicle: saline with Tween-80) 113 % of control.
As to `CC(=O)OC1CC(O)C23COC(O)C1C2CC(O)C1(C)C3C(=O)CC2(C)C(c3ccoc3)CC3OC321` (stereo not drawn), the T/C (dose: 0.25 mg/kg/injection, schedule: Q01DX009 (ip), vehicle: Klucel (hydroxypropylcellulose) (HPC)) was 103 % of control; the T/C (dose: 0.5 mg/kg/injection, schedule: Q01DX009 (ip), vehicle: Klucel (hydroxypropylcellulose) (HPC)) was 99 % of control; the T/C (dose: 1.0 mg/kg/injection, schedule: Q01DX009 (ip), vehicle: Klucel (hydroxypropylcellulose) (HPC)) was 111 % of control; the T/C (dose: 2.0 mg/kg/injection, schedule: Q01DX009 (ip), vehicle: Klucel (hydroxypropylcellulose) (HPC)) is 90 % of control.
On to `COc1ccc(C(CNC(=O)Cc2ccc(Oc3cc(CC(=O)NCC(OC)c4ccc(OC)c(OC)c4)ccc3OC)cc2)OC)cc1OC` (stereo not drawn), for which the T/C was 94 % of control under setting [1], 86 % of control under setting [2] and 92 % of control under setting [3].
For the molecule `O=C1OCc2c[n+]([O-])ccc21`, the T/C was 96 % of control (dose: 20.0 mg/kg/injection, schedule: Q01DX005 (ip), vehicle: Klucel (hydroxypropylcellulose) (HPC)); 118 % of control (dose: 40.0 mg/kg/injection, schedule: Q01DX005 (ip), vehicle: Klucel (hydroxypropylcellulose) (HPC)); 91 % of control (dose: 80.0 mg/kg/injection, schedule: Q01DX005 (ip), vehicle: Klucel (hydroxypropylcellulose) (HPC)).
As for `CCCCCN(CCCCC)CCCCCCCCN1CCCc2ccccc21`, the T/C reads like this: under setting [4], 106 % of control; under setting [5], 108 % of control; under setting [6], 117 % of control.
On to `CC(C)=CCCC(=O)C(c1nc2nnc(N)n2[nH]c1=O)c1nc2nnc(N)n2[nH]c1=O`, for which the T/C is 104 % of control (dose: 60.0 mg/kg/injection, schedule: Q01DX005 (ip), vehicle: saline); 104 % of control (dose: 120.0 mg/kg/injection, schedule: Q01DX005 (ip), vehicle: saline); 95 % of control (dose: 240.0 mg/kg/injection, schedule: Q01DX005 (ip), vehicle: saline).
`S=C1N(c2ccc(Br)cc2)C2=Nc3ccccc3SC(=C2N=Nc2ccccc2)N1c1ccc(Cl)cc1`: the T/C under setting [4] is 94 % of control, the T/C under setting [5] is 90 % of control and the T/C under setting [6] was 93 % of control.
Regarding `CC(=O)OCc1c(Cl)nc2sccn12`, the T/C runs as follows: (dose: 100.0 mg/kg/injection, schedule: Q01DX001 (ip), vehicle: Klucel (hydroxypropylcellulose) (HPC)) 104 % of control and 108 % of control; (dose: 200.0 mg/kg/injection, schedule: Q01DX001 (ip), vehicle: Klucel (hydroxypropylcellulose) (HPC)) 109 % of control and 117 % of control.
As to `CS(=O)(=O)OCCCCC/C=C/CCCCCCC1C=CCC1` (stereo not drawn), the T/C is 98 % of control (dose: 100.0 mg/kg/injection, schedule: Q01DX001 (ip), vehicle: saline); 99 % of control (dose: 200.0 mg/kg/injection, schedule: Q01DX001 (ip), vehicle: saline); 100 % of control (dose: 400.0 mg/kg/injection, schedule: Q01DX001 (ip), vehicle: saline).
